Experimental data: ChEMBL document CHEMBL4368926, “Arylpyridines, arylpyrimidines and related compounds as potential modulator agents of the VEGF, hTERT and c-Myc oncogenes” (Bioorg Med Chem, 2019)

Columns and labels:
[1] = Selectivity index, ratio of IC50 for HEK293 cells to IC50 for human MCF7 cells; settings: HEK293 cells versus MCF7 cells
[2] = test system: MCF7; test: Cytotoxicity against human MCF7 cells assessed as decrease in cell viability after 2 days by MTT assay; type: functional, cell-based; settings: MCF7, 48 h
[3] = test system: HT-29; test: Cytotoxicity against human HT-29 cells assessed as decrease in cell viability after 2 days by MTT assay; type: functional, cell-based; settings: HT-29, 48 h
[4] = test system: HEK293; test: Cytotoxicity against HEK293 cells assessed as decrease in cell viability after 2 days by MTT assay; type: ADME, cell-based; settings: Homo sapiens, HEK293, 48 h
[5] = test system: HT-29; test: Down-regulation of c-Myc mRNA expression in human HT-29 cells assessed as c-Myc mRNA level at 160 uM after 48 hrs by RT-qPCR analysis (reference value: 100%); type: functional
[6] = test system: HT-29; test: Down-regulation of c-Myc protein expression in human HT-29 cells assessed as c-Myc protein level at 160 uM after 48 hrs by ELISA (reference value: 100%); type: functional
[7] = Selectivity index, ratio of IC50 for HEK293 cells to IC50 for human HT-29 cells; type: toxicity; settings: HEK293 cells versus HT-29 cells, read-out: Ratio IC50
[8] = test system: HT-29; test: Down-regulation of hTERT mRNA expression in human HT-29 cells assessed as hTERT mRNA level at 160 uM after 48 hrs by RT-qPCR analysis (reference value: 100%); type: functional
[9] = test system: HT-29; test: Down-regulation of VEGFA protein expression in human HT-29 cells assessed as VEGFA protein level at 160 uM after 48 hrs by ELISA (reference value: 100%); type: functional
[10] = test system: HT-29; test: Down-regulation of VEGFRA mRNA expression in human HT-29 cells assessed as VEGFRA mRNA level at 160 uM after 48 hrs by RT-qPCR analysis (reference value: 100%); type: functional
[11] = test system: HT-29; test: Down-regulation of c-Myc protein expression in human HT-29 cells assessed as c-Myc protein level at 240 uM after 48 hrs by ELISA (reference value: 100%); type: functional
[12] = test system: HT-29; test: Down-regulation of VEGFA protein expression in human HT-29 cells assessed as VEGFA protein level at 240 uM after 48 hrs by ELISA (reference value: 100%); type: functional
[13] = test system: HT-29; test: Down-regulation of c-Myc mRNA expression in human HT-29 cells assessed as c-Myc mRNA level at 240 uM after 48 hrs by RT-qPCR analysis (reference value: 100%); type: functional
[14] = test system: HT-29; test: Down-regulation of hTERT mRNA expression in human HT-29 cells assessed as hTERT mRNA level at 240 uM after 48 hrs by RT-qPCR analysis (reference value: 100%); type: functional
[15] = test system: HT-29; test: Down-regulation of VEGFRA mRNA expression in human HT-29 cells assessed as VEGFRA mRNA level at 240 uM after 48 hrs by RT-qPCR analysis (reference value: 100%); type: functional
[16] = test system: HT-29; test: Down-regulation of hTERT mRNA expression in human HT-29 cells assessed as hTERT mRNA level at 40 uM after 48 hrs by RT-qPCR analysis (reference value: 100%); type: functional
[17] = test system: HT-29; test: Down-regulation of c-Myc mRNA expression in human HT-29 cells assessed as c-Myc mRNA level at 40 uM after 48 hrs by RT-qPCR analysis (reference value: 100%); type: functional
[18] = test system: HT-29; test: Down-regulation of c-Myc protein expression in human HT-29 cells assessed as c-Myc protein level at 40 uM after 48 hrs by ELISA (reference value: 100%); type: functional
[19] = test system: HT-29; test: Down-regulation of VEGFRA mRNA expression in human HT-29 cells assessed as VEGFRA mRNA level at 40 uM after 48 hrs by RT-qPCR analysis (reference value: 100%); type: functional
[20] = test system: HT-29; test: Down-regulation of VEGFA protein expression in human HT-29 cells assessed as VEGFA protein level at 40 uM after 48 hrs by ELISA (reference value: 100%); type: functional
[21] = test system: HT-29; test: Down-regulation of c-Myc mRNA expression in human HT-29 cells assessed as c-Myc mRNA level at 80 uM after 48 hrs by RT-qPCR analysis (reference value: 100%); type: functional
[22] = test system: HT-29; test: Down-regulation of c-Myc protein expression in human HT-29 cells assessed as c-Myc protein level at 80 uM after 48 hrs by ELISA (reference value: 100%); type: functional
[23] = test system: HT-29; test: Down-regulation of VEGFRA mRNA expression in human HT-29 cells assessed as VEGFRA mRNA level at 80 uM after 48 hrs by RT-qPCR analysis (reference value: 100%); type: functional
[24] = test system: HT-29; test: Down-regulation of VEGFA protein expression in human HT-29 cells assessed as VEGFA protein level at 80 uM after 48 hrs by ELISA (reference value: 100%); type: functional
[25] = test system: HT-29; test: Down-regulation of hTERT mRNA expression in human HT-29 cells assessed as hTERT mRNA level at 80 uM after 48 hrs by RT-qPCR analysis (reference value: 100%); type: functional
[26] = test system: HT-29; test: Down-regulation of VEGFA protein expression in human HT-29 cells assessed as VEGFA protein level at 100 uM after 48 hrs by ELISA (reference value: 100%); type: functional
[27] = test system: HT-29; test: Down-regulation of VEGFRA mRNA expression in human HT-29 cells assessed as VEGFRA mRNA level at 100 uM after 48 hrs by RT-qPCR analysis (reference value: 100%); type: functional
[28] = test system: HT-29; test: Down-regulation of hTERT mRNA expression in human HT-29 cells assessed as hTERT mRNA level at 100 uM after 48 hrs by RT-qPCR analysis (reference value: 100%); type: functional
[29] = test system: HT-29; test: Down-regulation of c-Myc mRNA expression in human HT-29 cells assessed as c-Myc mRNA level at 100 uM after 48 hrs by RT-qPCR analysis (reference value: 100%); type: functional
[30] = test system: HT-29; test: Down-regulation of c-Myc protein expression in human HT-29 cells assessed as c-Myc protein level at 100 uM after 48 hrs by ELISA (reference value: 100%); type: functional
[31] = test system: HT-29; test: Down-regulation of VEGFRA mRNA expression in human HT-29 cells assessed as VEGFRA mRNA level at 20 uM after 48 hrs by RT-qPCR analysis (reference value: 100%); type: functional
[32] = test system: HT-29; test: Down-regulation of c-Myc protein expression in human HT-29 cells assessed as c-Myc protein level at 20 uM after 48 hrs by ELISA (reference value: 100%); type: functional
[33] = test system: HT-29; test: Down-regulation of c-Myc mRNA expression in human HT-29 cells assessed as c-Myc mRNA level at 20 uM after 48 hrs by RT-qPCR analysis (reference value: 100%); type: functional
[34] = test system: HT-29; test: Down-regulation of hTERT mRNA expression in human HT-29 cells assessed as hTERT mRNA level at 20 uM after 48 hrs by RT-qPCR analysis (reference value: 100%); type: functional
[35] = test system: HT-29; test: Down-regulation of VEGFA protein expression in human HT-29 cells assessed as VEGFA protein level at 20 uM after 48 hrs by ELISA (reference value: 100%); type: functional
[36] = test system: HT-29; test: Down-regulation of VEGFA protein expression in human HT-29 cells assessed as VEGFA protein level at 145 uM after 48 hrs by ELISA (reference value: 100%); type: functional
[37] = test system: HT-29; test: Down-regulation of hTERT mRNA expression in human HT-29 cells assessed as hTERT mRNA level at 145 uM after 48 hrs by RT-qPCR analysis (reference value: 100%); type: functional
[38] = test system: HT-29; test: Down-regulation of c-Myc mRNA expression in human HT-29 cells assessed as c-Myc mRNA level at 145 uM after 48 hrs by RT-qPCR analysis (reference value: 100%); type: functional
[39] = test system: HT-29; test: Down-regulation of c-Myc protein expression in human HT-29 cells assessed as c-Myc protein level at 145 uM after 48 hrs by ELISA (reference value: 100%); type: functional
[40] = test system: HT-29; test: Down-regulation of VEGFRA mRNA expression in human HT-29 cells assessed as VEGFRA mRNA level at 145 uM after 48 hrs by RT-qPCR analysis (reference value: 100%); type: functional

| Compound | selectivity ratio [1] | IC50 [2] [µM] | IC50 [3] [µM] | IC50 [4] [µM] | selectivity ratio [7] | further results |
| --- | --- | --- | --- | --- | --- | --- |
| c1ccc(-c2cncnc2)cc1 | > 50 | 7 | > 400 | > 400 |  |  |
| COc1ccc(N2CCOCC2)cc1 | 7 | 73 | 180 | > 400 | 3 | Activity [5]: 96%; Activity [6]: 100%; Activity [8]: 63%; Activity [9]: 64%; Activity [10]: 66% |
| c1ccc(-c2cccnc2)cc1 | < 1 | > 400 | > 400 | 321 | < 1 | Activity [11]: 60%; Activity [12]: 42%; Activity [13]: 35%; Activity [14]: 56%; Activity [15]: 34% |
| COc1ccc(-c2cccnc2)cc1OC | > 2 | 223 | > 400 | > 400 |  |  |
| c1ccc(N2CCOCC2)cc1 | 5 | 120 | 240 | > 400 | 3 | Activity [5]: 67%; Activity [6]: 95%; Activity [8]: 57%; Activity [9]: 79%; Activity [10]: 79% |
| COc1ccc(-c2cccnc2)c(OC)c1 | < 1 | 210 | 59 | 100 | 2 | Activity [16]: 28%; Activity [17]: 39%; Activity [18]: 56%; Activity [19]: 32%; Activity [20]: 52% |
| c1ccc(N2CCCCC2)cc1 | 4 | 157 | 120 | > 400 | 5 | Activity [21]: 52%; Activity [22]: 95%; Activity [23]: 89%; Activity [24]: 75%; Activity [25]: 41% |
| Oc1ccccc1-c1ccccn1 | 57 | 7 | 197 | 390 | 2 | Activity [26]: 65%; Activity [27]: 31%; Activity [28]: 36%; Activity [29]: 17%; Activity [30]: 62% |
| COc1ccc(-c2ccccn2)c(OC)c1 | < 1 | > 400 | > 400 | 234 | < 1 |  |
| COc1ccc(-c2ccccn2)cc1OC | < 1 | 210 | 56 | 170 | 3 | Activity [16]: 20%; Activity [17]: 38%; Activity [18]: 100%; Activity [31]: 8%; Activity [20]: 48% |
| Oc1ccccc1-c1ncccn1 | 14 | 41 | > 400 | > 400 |  |  |
| COc1ccc(-c2ncccn2)c(OC)c1 | < 1 | 130 | 30 | 20 | < 1 | Activity [32]: 63%; Activity [33]: 18%; Activity [34]: 85%; Activity [35]: 48%; Activity [31]: 33% |
| COc1cccc(N2CCCC2)c1 | 3 | 51 | 310 | 210 | 3 |  |
| c1ccc(N2CCCC2)cc1 |  | > 400 | > 400 | > 400 |  |  |
| COc1ccc(N2CCCCC2)cc1 | 2 | 71 | 120 | 100 |  |  |
| COc1ccc(-c2cncnc2)cc1OC | 2 | 200 | > 400 | > 400 |  |  |
| COc1ccc(-c2ncccn2)cc1OC | > 9 | 48 | > 400 | > 400 |  |  |
| COc1ccc(-c2cncnc2)c(OC)c1 |  | > 400 | > 400 | > 400 |  |  |
| Oc1ccccc1-c1cncnc1 | 2 | 61 | 380 | 90 | < 1 |  |
| Oc1ccccc1-c1cccnc1 | 7 | 41 | 115 | 294 | 2 | Activity [36]: 96%; Activity [37]: 44%; Activity [38]: 39%; Activity [39]: 100%; Activity [40]: 18% |
| COc1ccc(N2CCCC2)cc1 | 5 | > 400 | 210 | 350 | 3 | Activity [26]: 79%; Activity [27]: 55%; Activity [28]: 35%; Activity [29]: 79%; Activity [30]: 100% |
| COc1cccc(N2CCOCC2)c1 | 5 | 100 | 160 | > 400 | 3 | Activity [5]: 62%; Activity [6]: 100%; Activity [8]: 72%; Activity [9]: 50%; Activity [10]: 54% |
| C=CCc1ccc(O)c(-c2ccc(O)c(CC=C)c2)c1 [HONOKIOL] | 2 | 35 | 25 | 40 | 2 | Activity [32]: 53%; Activity [33]: 45%; Activity [34]: 45%; Activity [35]: 55%; Activity [31]: 36% |
